Measured values taken from ChEMBL document CHEMBL5154839, “Discovery of a selective and covalent small-molecule inhibitor of BFL-1 protein that induces robust apoptosis in cancer cells” (Eur J Med Chem, 2022).
The source made the active and inactive calls. No cut-off for these calls is given here.

Tests used:
MM1.S [1] = assay: Growth inhibition of human MM1.S cells incubated for 4 days by WST assay; assay type: functional, cell-based; conditions: 96 h
Bcl-2-related protein A1 [2] = molecular target: T1, Bcl-2-related protein A1 (Homo sapiens, UniProt Q16548); assay: Displacement of fluorescein tagged BID BH3 peptide from His-tagged recombinant BFL-1 (1 to 151 residues) (unknown origin) expressed in Escherichia coli BL21 (DE3) assessed as inhibition constant incubated for 24 hrs by fluorescence polarization-based competitive binding assay
T1 sequence (Q16548 whole entry): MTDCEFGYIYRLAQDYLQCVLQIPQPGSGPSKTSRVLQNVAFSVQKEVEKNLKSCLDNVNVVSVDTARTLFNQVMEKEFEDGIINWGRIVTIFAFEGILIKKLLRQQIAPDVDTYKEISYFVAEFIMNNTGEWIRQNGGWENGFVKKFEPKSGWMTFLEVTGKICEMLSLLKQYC

Bcl-2-related protein A1 [3] = molecular target: T1, Bcl-2-related protein A1; assay: Binding affinity to His-tagged recombinant BFL-1 (1 to 151 residues) (unknown origin) expressed in Escherichia coli BL21 (DE3) assessed as dissociation constant by surface plasmon resonance analysis
Homo sapiens = species on record: Homo sapiens; assay: Displacement of fluorescein tagged BID BH3 peptide from His-tagged recombinant BFL-1 (1 to 151 residues) C55A mutant (unknown origin) expressed in Escherichia coli BL21 (DE3) assessed as fold decrease in inhibition constant incubated for 24 hrs by fluorescence polarization-based competitive binding assay relative to wild type
Bcl-2-like protein 1 = Bcl-2-like protein 1 (Homo sapiens, UniProt Q07817); assay: Displacement of fluorescein tagged BAK peptide from N-terminal His tagged human BCL-xL (1 to 209 residues) expressed in Escherichia coli BL21 (DE3) assessed as inhibition constant incubated for 1.5 hrs by fluorescence polarization-based competitive binding assay
[4] = molecular target: Apoptosis regulator Bcl-2 (Homo sapiens, UniProt P10415); assay: Displacement of fluorescein tagged BIM peptide from N-terminal His tagged human BCL-2 (1 to 170 residues) expressed in Escherichia coli BL21 (DE3) assessed as inhibition constant incubated for 1.5 hrs by fluorescence polarization-based competitive binding assay
[5] = molecular target: Transcriptional enhancer factor TEF-4 (Homo sapiens, UniProt Q15562); assay: Displacement of FAM- labeled YAP1 peptide from TEAD2 (217 to 447 residues) (unknown origin) expressed in Escherichia coli BL21 (DE3) assessed as inhibition constant incubated for 1.5 hrs by fluorescence polarization-based competitive binding assay
[6] = molecular target: Transcriptional enhancer factor TEF-3 (Homo sapiens, UniProt Q15561); assay: Displacement of FAM- labeled YAP1 peptide from TEAD4 (217 to 434 residues) (unknown origin) expressed in Escherichia coli BL21 (DE3) assessed as inhibition constant incubated for 1.5 hrs by fluorescence polarization-based competitive binding assay
[7] = Displacement of FAM- labeled PDI peptide from MDM4 C17S mutant (14 to 111 residues) (unknown origin) expressed in Escherichia coli BL21 (DE3) assessed as inhibition constant incubated for 1.5 hrs by fluorescence polarization-based competitive binding assay; set-up: species or system Homo sapiens
[8] = molecular target: Bromodomain-containing protein 2 (Homo sapiens, UniProt P25440); assay: Binding affinity to recombinant human BRD2 BD2 (349-460 residues) assessed as inhibition constant by fluorescence polarization assay
[9] = molecular target: Bromodomain-containing protein 3 (Homo sapiens, UniProt Q15059); assay: Binding affinity to recombinant human BRD3 BD1 (24-144 residues) assessed as inhibition constant by fluorescence polarization assay
[10] = molecular target: Programmed cell death protein 1/Programmed cell death 1 ligand 1 (Homo sapiens, UniProt Q15116+Q9NZQ7); assay: Inhibition of biotinylated tagged PD-1 (unknown origin)/His tagged PD-L1 (unknown origin) protein-protein interaction assessed as inhibition constant incubated for 90 mins by AlphaLISA assay; assay type: protein-complex assay
U-937 [11] = assay: Induction of apoptosis in human U-937 cells overexpressing BFL-1 assessed as increase in cytochrome c level incubated for 3 hrs by immunoblotting analysis; assay type: functional, cell-based
Kasumi 1 = assay: Induction of apoptosis in human Kasumi 1 cells overexpressing BFL-1 assessed as increase in cytochrome c level at 5 to 40 uM incubated for 3 hrs by immunoblotting analysis; assay type: functional, cell-based; conditions: dose 5-40 µM
U-937 [12] = assay: Induction of apoptosis in human U-937 cells assessed as increase in BFL-1 protein expression after 24 hrs by Western blot analysis; assay type: functional, cell-based; conditions: DDE = dose-dependent effect
U-937 [13] = assay: Induction of apoptosis in human U-937 cells assessed as phosphatidylserine level measured after 4 hrs by Annexin V staining based flow cytometry analysis; assay type: functional, cell-based; conditions: DDE = dose-dependent effect
U-937 [14] = assay: Induction of apoptosis in human U-937 cells assessed as early apoptotic cells at 60 uM measured after 4 hrs by Annexin PI staining based flow cytometry method (reference value: 1.95 %); assay type: functional
U-937 [15] = assay: Induction of apoptosis in human U-937 cells assessed as early apoptotic cells at 10 uM measured after 4 hrs by Annexin PI staining based flow cytometry method (reference value: 1.95 %); assay type: functional
U-937 [16] = assay: Induction of apoptosis in human U-937 cells assessed as early apoptotic cells at 20 uM measured after 4 hrs by Annexin PI staining based flow cytometry method (reference value: 1.95 %); assay type: functional
U-937 [17] = assay: Induction of apoptosis in human U-937 cells assessed as late apoptotic cells at 20 uM measured after 4 hrs by Annexin PI staining based flow cytometry method (reference value: 1.62 %); assay type: functional
U-937 [18] = assay: Induction of apoptosis in human U-937 cells assessed as necrotic cells at 20 uM measured after 4 hrs by Annexin PI staining based flow cytometry method (reference value: 0.00 %); assay type: functional
U-937 [19] = assay: Induction of apoptosis in human U-937 cells assessed as late apoptotic cells at 60 uM measured after 4 hrs by Annexin PI staining based flow cytometry method (reference value: 1.62 %); assay type: functional
K562 = assay: Growth inhibition of human K562 cells incubated for 4 days by WST assay; assay type: functional, cell-based; conditions: K562, 96 h
U-937 [20] = assay: Upregulation of BFL-1 protein expression in human U-937 cells by Western blotting analysis; assay type: functional, cell-based
RPMI-8226 = assay: Upregulation of BFL-1protein expression in human RPMI-8226 cells by Western blotting analysis; assay type: functional, cell-based
MM1.S [21] = assay: Upregulation of BFL-1protein expression in human MM1.S cells by Western blotting analysis; assay type: functional, cell-based
MV4-11 = assay: Upregulation of BFL-1protein expression in human MV4-11 cells by Western blotting analysis; assay type: functional, cell-based
[22] = molecular target: T2, BCL2A11/BBC3 (Homo sapiens) (UniProt Q16548+Q9BXH1); assay: Inhibition of human BFL-1/PUMA protein-protein interaction in human Kasumi 1 cells assessed as increase in BFL-1 protein level at 20 to 80 uM measured after 5 hrs by co-immunoprecipitation assay; assay type: cell-based; conditions: dose 20-80 µM
[23] = molecular target: T2, BCL2A11/BBC3 (Homo sapiens); assay: Inhibition of human BFL-1/PUMA protein-protein interaction in human Kasumi 1 cells assessed as decrease in PUMA protein level at 80 uM measured after 5 hrs by co-immunoprecipitation assay; assay type: cell-based
U-937 [24] = assay: Induction of apoptosis in human U-937 cells assessed as assessed as increase in PARP cleavage measured after 24 hrs by Western blot analysis; assay type: functional, cell-based; conditions: DDE = dose-dependent effect
U-937 [25] = assay: Induction of apoptosis in human U-937 cells assessed as caspase-3 cleavage measured after 24 hrs by Western blot analysis; assay type: functional, cell-based; conditions: DDE = dose-dependent effect

T2 sequence (Q9BXH1 whole entry, looked up, one chain of several): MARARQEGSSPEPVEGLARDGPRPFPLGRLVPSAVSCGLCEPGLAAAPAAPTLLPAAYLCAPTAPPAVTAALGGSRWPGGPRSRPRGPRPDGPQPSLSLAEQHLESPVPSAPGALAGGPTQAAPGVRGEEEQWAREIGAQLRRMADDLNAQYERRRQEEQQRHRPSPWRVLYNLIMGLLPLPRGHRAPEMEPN
Transcriptional enhancer factor TEF-4, sequence (Q15562 whole entry, the tested form may be a part): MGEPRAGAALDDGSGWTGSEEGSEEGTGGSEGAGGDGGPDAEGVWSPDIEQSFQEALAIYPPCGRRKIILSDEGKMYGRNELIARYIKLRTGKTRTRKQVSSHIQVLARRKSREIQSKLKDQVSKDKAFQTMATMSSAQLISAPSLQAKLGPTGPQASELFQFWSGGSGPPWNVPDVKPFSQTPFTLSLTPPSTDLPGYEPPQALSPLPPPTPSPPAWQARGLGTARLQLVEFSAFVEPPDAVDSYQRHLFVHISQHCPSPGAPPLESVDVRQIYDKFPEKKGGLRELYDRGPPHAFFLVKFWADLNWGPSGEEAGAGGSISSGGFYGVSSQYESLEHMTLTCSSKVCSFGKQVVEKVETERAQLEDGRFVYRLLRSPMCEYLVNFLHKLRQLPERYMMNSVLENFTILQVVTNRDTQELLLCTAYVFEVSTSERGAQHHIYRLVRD
Bcl-2-like protein 1, sequence (Q07817 whole entry, the tested form may be a part): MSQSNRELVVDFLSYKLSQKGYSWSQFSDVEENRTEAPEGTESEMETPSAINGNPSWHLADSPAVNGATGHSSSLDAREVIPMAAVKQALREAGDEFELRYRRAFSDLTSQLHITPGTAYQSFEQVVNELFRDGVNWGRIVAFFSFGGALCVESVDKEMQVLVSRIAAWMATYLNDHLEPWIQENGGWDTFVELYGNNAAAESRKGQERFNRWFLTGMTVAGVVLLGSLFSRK
Bromodomain-containing protein 3, sequence (Q15059 whole entry, the tested form may be a part): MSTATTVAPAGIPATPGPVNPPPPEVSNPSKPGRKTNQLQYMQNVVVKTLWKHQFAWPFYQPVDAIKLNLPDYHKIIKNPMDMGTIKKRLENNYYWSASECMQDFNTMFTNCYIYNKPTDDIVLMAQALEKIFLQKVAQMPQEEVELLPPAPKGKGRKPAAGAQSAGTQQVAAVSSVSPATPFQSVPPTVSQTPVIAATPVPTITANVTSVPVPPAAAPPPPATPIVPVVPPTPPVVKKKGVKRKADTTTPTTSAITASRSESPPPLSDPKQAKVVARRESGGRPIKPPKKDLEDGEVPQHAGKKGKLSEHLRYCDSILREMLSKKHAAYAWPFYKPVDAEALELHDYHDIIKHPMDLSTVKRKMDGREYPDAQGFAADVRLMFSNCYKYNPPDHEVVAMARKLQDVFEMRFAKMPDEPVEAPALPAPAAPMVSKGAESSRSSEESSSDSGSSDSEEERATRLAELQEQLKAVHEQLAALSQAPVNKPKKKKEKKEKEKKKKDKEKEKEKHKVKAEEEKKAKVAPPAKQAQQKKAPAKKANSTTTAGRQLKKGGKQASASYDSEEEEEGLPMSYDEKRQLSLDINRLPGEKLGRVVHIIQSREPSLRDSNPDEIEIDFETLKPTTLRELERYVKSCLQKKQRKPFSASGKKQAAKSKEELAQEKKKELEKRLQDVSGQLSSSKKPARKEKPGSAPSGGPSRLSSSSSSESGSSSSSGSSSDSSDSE
Bromodomain-containing protein 2, sequence (P25440 whole entry, the tested form may be a part): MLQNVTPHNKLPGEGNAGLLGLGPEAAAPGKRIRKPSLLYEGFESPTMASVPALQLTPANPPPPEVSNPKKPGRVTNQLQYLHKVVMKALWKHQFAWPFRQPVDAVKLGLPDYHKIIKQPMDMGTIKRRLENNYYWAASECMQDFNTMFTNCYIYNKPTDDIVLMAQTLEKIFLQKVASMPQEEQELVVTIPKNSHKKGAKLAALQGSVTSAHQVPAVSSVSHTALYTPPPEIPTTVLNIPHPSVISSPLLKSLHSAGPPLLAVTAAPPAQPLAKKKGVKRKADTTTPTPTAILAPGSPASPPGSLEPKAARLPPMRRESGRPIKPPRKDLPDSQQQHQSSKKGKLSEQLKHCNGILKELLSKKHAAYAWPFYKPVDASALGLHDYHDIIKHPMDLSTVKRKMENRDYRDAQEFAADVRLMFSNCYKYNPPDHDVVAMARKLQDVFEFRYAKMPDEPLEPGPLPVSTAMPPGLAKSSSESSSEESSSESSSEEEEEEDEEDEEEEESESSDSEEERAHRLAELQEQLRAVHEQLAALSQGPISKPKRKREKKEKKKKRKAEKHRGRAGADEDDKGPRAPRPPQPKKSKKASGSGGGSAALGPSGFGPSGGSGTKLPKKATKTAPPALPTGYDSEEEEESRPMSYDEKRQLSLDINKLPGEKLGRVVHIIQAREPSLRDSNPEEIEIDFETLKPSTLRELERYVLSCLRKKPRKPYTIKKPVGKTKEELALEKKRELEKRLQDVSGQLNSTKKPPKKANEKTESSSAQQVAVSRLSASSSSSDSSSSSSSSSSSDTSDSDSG
Apoptosis regulator Bcl-2, sequence (P10415 whole entry, the tested form may be a part): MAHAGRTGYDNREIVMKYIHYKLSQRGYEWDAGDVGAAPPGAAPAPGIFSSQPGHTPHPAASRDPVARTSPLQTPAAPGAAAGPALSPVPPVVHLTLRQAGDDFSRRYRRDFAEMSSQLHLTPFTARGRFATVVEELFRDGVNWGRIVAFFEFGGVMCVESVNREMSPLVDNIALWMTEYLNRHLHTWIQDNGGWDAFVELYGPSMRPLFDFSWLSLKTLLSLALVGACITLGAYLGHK
Programmed cell death protein 1/Programmed cell death 1 ligand 1, sequence (Q15116 whole entry): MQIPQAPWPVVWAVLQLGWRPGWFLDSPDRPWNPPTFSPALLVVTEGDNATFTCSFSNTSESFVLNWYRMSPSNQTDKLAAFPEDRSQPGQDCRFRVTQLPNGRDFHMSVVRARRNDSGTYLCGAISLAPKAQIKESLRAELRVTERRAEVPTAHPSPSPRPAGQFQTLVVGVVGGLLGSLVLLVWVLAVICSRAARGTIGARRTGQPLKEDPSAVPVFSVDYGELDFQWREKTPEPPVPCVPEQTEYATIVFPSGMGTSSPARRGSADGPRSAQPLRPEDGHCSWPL
Programmed cell death protein 1/Programmed cell death 1 ligand 1, sequence (Q9NZQ7 whole entry): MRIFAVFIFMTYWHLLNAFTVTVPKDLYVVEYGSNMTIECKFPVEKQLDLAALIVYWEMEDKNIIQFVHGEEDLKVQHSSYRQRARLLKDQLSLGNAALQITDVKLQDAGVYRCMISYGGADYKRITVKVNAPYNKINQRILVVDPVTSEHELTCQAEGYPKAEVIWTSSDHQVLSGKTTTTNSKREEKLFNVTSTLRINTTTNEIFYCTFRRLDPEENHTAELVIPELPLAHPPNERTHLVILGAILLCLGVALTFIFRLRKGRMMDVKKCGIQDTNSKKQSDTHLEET
Transcriptional enhancer factor TEF-3, sequence (Q15561 whole entry, the tested form may be a part): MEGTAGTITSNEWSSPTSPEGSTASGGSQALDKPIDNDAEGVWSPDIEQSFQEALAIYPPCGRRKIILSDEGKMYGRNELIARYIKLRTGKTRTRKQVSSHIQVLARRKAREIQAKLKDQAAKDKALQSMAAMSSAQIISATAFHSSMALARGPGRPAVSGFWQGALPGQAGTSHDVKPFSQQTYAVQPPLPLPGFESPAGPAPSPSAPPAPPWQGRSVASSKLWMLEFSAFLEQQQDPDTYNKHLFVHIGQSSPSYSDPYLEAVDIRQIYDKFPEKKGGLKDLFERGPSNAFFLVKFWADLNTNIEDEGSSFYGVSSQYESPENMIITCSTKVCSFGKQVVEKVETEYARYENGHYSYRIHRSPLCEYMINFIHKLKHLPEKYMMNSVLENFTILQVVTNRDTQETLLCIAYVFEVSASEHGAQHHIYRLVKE

IC50 (MM1.S [1]): 6.8 µM
Ki (Bcl-2-related protein A1 [2]): 0.41 µM
Kd (Bcl-2-related protein A1 [3]): 0.262 µM
fold change (FC) (Homo sapiens): 21
Ki (Bcl-2-like protein 1): > 400 µM
Ki [4]: > 400 µM
Ki [5]: > 400 µM
Ki [6]: > 400 µM
Ki [8]: > 400 µM
Ki [9]: > 400 µM
IC50 (K562): 7.7 µM
Activity [22]: Active
inhibition [23]: Active
Compound: C=CC(=O)N1CCN(c2c3ccc(-c4cccc(F)c4)cc3nn2Cc2ccccc2)CC1
Ki [7]: > 400 µM
Ki [10]: > 400 µM
Activity (U-937 [11]): Active
Activity (Kasumi 1): Active
Activity (U-937 [12]): Dde
Activity (U-937 [13]): Dde
Activity (U-937 [14]): 4.61%
Activity (U-937 [15]): 6.03%
Activity (U-937 [16]): 8.02%
Activity (U-937 [17]): 4.05%
Activity (U-937 [18]): 1.02%
Activity (U-937 [19]): 21.52%
Activity (U-937 [20]): Active
Activity (RPMI-8226): Active
Activity (MM1.S [21]): Active
Activity (MV4-11): Active
Activity (U-937 [24]): Dde
Activity (U-937 [25]): Dde
